{
  "source": "patent EP2711366A1",
  "about": "“Cationic triphenylamine derivatives activable by visible and Infra Red light for inducing and imaging apoptosis in cancer cells” (Institut Curie, priority 2012, dated 2014)",
  "assay_type_in_all_cases": "cell-based",
  "key": {"[1]": {"system": "MCF-7 cells", "assay": "FITC-conjugated Annexin V staining, flow cytometric analysis (apoptosis)", "conditions": "for HMFI population: 30 min illumination; for HMFI population (Annexin V positive, TP2Py positive): 2µM, 2 hours", "method": "MCF-7 cells were plated in 12-well plates (2.10^5 cells/well) and incubated with 2µM of TP2Py for 2h at 37°C. Under specific conditions (see Fig. 12), cells were further incubated with NAC (1mM) for 30 min, Bapta-AM (20µM) for 3h, or CsA (10µM) for 1h at 37°C. After a time illumination of either 30 or 60 min at […] (Mercury lamp (130W; 380-600nm) + excitation filter centered at 452nm (± 45nm)), cells were gently scraped and pooled with medium floating cells. Cells were individualized in PBS-EDTA (10mM) and stained as described by the manufacturer (Roche, Germany). Briefly, the cell pellet was re-suspended in 500µl Annexin V-HEPES solution (10 mM HEPES-NaOH, pH 7.4, 140mM NaCl, 5mM CaCl2) and incubated on ice for 30 min in the dark. Cells were then washed in ice-cold HEPES buffer before analysis. Fluorescence signals of fluorescently labelled (FITC) Annexin V and TP2Py were measured by a FACSCalibur flow cytometer (Becton-Dickinson, Sunnyvale, CA, USA) using FL1 and FL2 detectors, respectively.\nDifferent experiments are summarized below: • MCF-7 cells treated with 2µM TP2Py for 2 hours and then stained with FITC-conjugated Annexin V immediately (Fig.12A) without light exposure; • MCF-7 cells treated with 2µM TP2Py for 2 hours and then stained with FITC-conjugated Annexin V after a time illumination (Exc, 452 nm) of 30 min (Fig.12B); • MCF-7 cells treated with 2µM TP2Py for 2 hours and then stained with FITC-conjugated Annexin V after a time illumination (Exc, 452 nm) of 60 min (Fig.12C); • control MCF-7 cells treated with DMSO (1%) only and illuminated for 30 min before Annexin V staining (Fig.12D); • control MCF-7 cells treated with 1µg/mL actinomycin D (ActD), no illumination before Annexin V staining (Fig.12E); • control MCF-7 cells treated with camptothecin (CPT, 10µM)) (Fig.12F) for 2.5 hours, no illumination before Annexin V staining; • MCF-7 cells treated during 2 hours with 2µM TP2Py and 10µM cyclosporine A (CsA) and illuminated for 30 min before Annexin V staining (Fig.12G); • MCF-7 cells treated during 2 hours with 2µM TP2Py and 1 mM N-Acetyl cysteine (NAC) and illuminated for 30 min before Annexin V staining (Fig.12H); and • MCF-7 cells treated during 2 hours with 2µM TP2Py and 20µM Bapta-am (Fig.12I) and illuminated for 30 min before Annexin V staining.\nThe horizontal (FL1-H) and vertical (FL2-H) axes correspond to the fluorescence signal of Annexin V and TP2Py, respectively. The percentage of population with a high mean fluorescence signal is indicated in the corresponding quadrant (top right or bottom right in the presence or absence of TP2Py, respectively)."}, "[2]": {"system": "PARP (poly-ADP ribose polymerase) cleavage in HeLa cells", "assay": "PARP cleavage by Western blot and cell morphology after illumination", "conditions": "2 µM, 2h, 17 mW.cm^-2, 452 nm filter", "method": "HeLa cells were plated in 6-well plates (4.10^5 cells/well) and incubated with 2 µM TP2Py for 2h at 37°C. After varying illumination times (up to 90min) at 17 mW.cm^-2 (Mercury lamp (130W; 380-600nm) + excitation filter centered at 452 nm (± 45 nm)), cells were collected by scraping, washed once in ice-cold PBS, treated with lysis buffer (1% Nonidet P-40, 20 mM Tris pH 8.0, 137 mM NaCl, 10% glycerol (v/v)) supplemented with 1 mM phenyl-methylsulfonyl fluoride, 1 mM sodium orthovanadate and anti-protease cocktail (Complete, Boehringer Mannheim, Germany) for 20 min on ice and further centrifuged at 10000g for 10 min. Protein concentrations were determined using the bicinchoninic acid method (micro BCA, Pierce, USA). 40µg of detergent soluble proteins were separated by SDS-PAGE under reducing conditions followed by Western blotting. Membranes were first incubated overnight at 4°C with the rabbit primary polyclonal antibody anti-PARP (Cell Signaling Technology). Membranes were then probed with horseradish peroxidase-labelled anti-rabbit IgG (dilution, 1/2000) (Dakocytomation). Detection was based on a chemiluminescence detection system (GE Healthcare, Orsay, France). […]\nThe cleavage of PARP, a hallmark of apoptosis, was assessed by Western blot using an anti-PARP antibody that recognizes both the entire and cleaved PARP (Fig. 11)."}, "[3]": {"system": "HeLa cells", "assay": "Cytophototoxicity by MTT assay under illumination", "conditions": "irradiance 60mW/cm^2", "procedure": "Different experiments were conducted and described below: • MCF7 cells were treated with 2µM of TP2Py or TP3Bzim and exposed to illumination (Fig.9A); • HeLa cells were treated with 2µM of TP2Py or TP3Bzim and exposed to illumination (Fig.9B); • MCF7 cells were treated with TP2Py, 40 min illumination (black circles) or without illumination (white circles) (Fig.9C) • HeLa cells were treated with TP2Py [30 min illumination (black circles) or without illumination (white circles)] or TP3Bzim [15 min illumination (black triangles) or without illumination (white triangles)]\nFor each experiment, the source of excitation was a Mercury lamp (130W; 380-600nm) with an excitation filter centered at 452nm (± 45 nm), irradiance, 60mW/cm^2.\nFirst, the experiment was calibrated by determining the time of illumination exposure which leads to the toxicity 50%, for a given concentration of TPA (2 µM) and for an irradiance of 60mW/cm^2. […] This characteristic time was then used for the plots shown in Fig. 9C and 9D which represent the cell viability as a function of TPA concentration (in HeLa and MCF-7 cells, respectively)."}, "[4]": {"system": "living MCF-7 cells", "assay": "Cell death induced by two-photon excitation (multiphoton microscopy)", "conditions": "two-photon λex 860nm, irradiance 1.25W/cm^2", "method": "A similar set up was used for two-photon images except that the excitation source was a 80-MHz mode-locked Mai Tai® Ti:Sapphire tunable laser (720-920 nm, 100 fs laser pulse; Spectra Physics, Mountain View, California) tuned to 860 nm.\nLiving MCF-7 cells were treated with 2 µM of TP2Py for 2 hours, exposed to two-photon excitation and simultaneously observed by multiphoton microscopy [using- a pulsed IR laser source for excitation Mai Tai, Spectra Physics, λex = 860nm; irradiance, 1.25W/cm^2, emission slit setting: 560-720nm]."}},
  "data": [
    {"smiles": "C[n+]1ccc(/C=C/c2ccc(N(c3ccccc3)c3ccc(/C=C/c4cc[n+](C)cc4)cc3)cc2)cc1", "note": "[TP2Py]", "values": [
      {"measurement": "HMFI population", "setting": "[1]; 2µM TP2Py with 10µM cyclosporine A (CsA)", "value": 13, "unit": "%"},
      {"measurement": "HMFI population", "setting": "[1]; 2µM TP2Py with 20µM Bapta-am", "value": 19, "unit": "%"},
      {"measurement": "HMFI population", "setting": "[1]; 2µM TP2Py with 1 mM N-Acetyl cysteine (NAC)", "value": 25, "unit": "%"},
      {"measurement": "HMFI population (Annexin V positive, TP2Py positive)", "setting": "[1]; 30 min illumination (452 nm, 40 MW.cm^-2)", "value": 29, "unit": "%"},
      {"measurement": "HMFI population (Annexin V positive, TP2Py positive)", "setting": "[1]; 60 min illumination", "value": 38, "unit": "%"},
      {"measurement": "HMFI population (Annexin V positive, TP2Py positive)", "setting": "[1]; without light illumination", "value": 4.3, "unit": "%"},
      {"measurement": "illumination time after which PARP cleavage was detected", "setting": "[2]", "value": 60, "unit": "min"},
      {"measurement": "illumination time required for the same TC50 under illumination", "setting": "[3]; Mercury lamp, filter 452nm", "value": 30, "unit": "min"},
      {"measurement": "corresponding light dose", "setting": "[3]", "value": 108, "unit": "J/cm^2"},
      {"measurement": "start of re-localization into the nucleus after the first excitation", "setting": "[4]; 2 µM, 2 hours", "value": "5 to 15", "unit": "min"},
      {"measurement": "light dose", "setting": "[4]", "value": "≈ 300 J/cm^2"}
    ]}
  ]
}
